From the supplement of paper PMC4862054

Tested on: MDA-MB-231
Test: normalised response (% of control), CellTiter-Glo; higher = more viable cells (100 = DMSO, 0 = benzethonium chloride kill control)
Conditions: incubation time: 72 h
Method in brief: (§1)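 After 72 h with compound in 384-well plates, breast cancer cell lines seeded as 20 µl suspension were read for CellTox Green fluorescence at 485/520 nm. CellTiter-Glo luminescence was then read after 10 min at room temperature. Compound was present at 5 concentrations in 10-fold steps over a 10,000-fold range set per compound, and plates were normalised to 0.1 % DMSO (100) and a positive kill control (0). Values are normalised signals, each at a single concentration.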

CC(=O)Nc1ccc(C(=O)Nc2ccccc2N)cc1 [Tacedinaline] (0.1 nM) gave a normalised response of 98.9%.

Tested on: MDA-MB-468
Test: as above
Conditions: incubation time: 72 h
Method in brief: as §1

Going from C[C@]12CC[C@@H]3c4ccc(O)cc4C[C@@H](CCCCCCCCC[S+]([O-])CCCC(F)(F)C(F)(F)F)[C@H]3[C@@H]1CC[C@@H]2O (stereo partly specified) [Fulvestrant] (100 nM) to CCCCCCCCCCCCCCCCCCOP(=O)([O-])OC1CC[N+](C)(C)CC1 [Perifosine] (2.5 nM), the normalised response falls from 104% to 97.4%.

Going from CS(=O)(=O)c1ccc(C2=C(c3ccccc3)C(=O)OC2)cc1 [Rofecoxib] (1 nM) to O=C(O)c1ccc(-c2c[nH]c3ncc(-c4ccccc4)cc23)cc1C1CCCC1 (1 nM), the normalised response falls from 108% to 92.9%.

First: N#CCNC(=O)c1ccc(-c2ccnc(Nc3ccc(N4CCOCC4)cc3)n2)cc1 [Momelotinib] (10 nM)
Second: CC(=O)Nc1ccc(C(=O)Nc2ccccc2N)cc1 [Tacedinaline] (0.1 nM)
The normalised response of the first is lower: 92.8% for the first, 105% for the second.

Compared with O=P1(NCCCl)OCCCN1CCCl (stereo unspecified) [Ifosfamide] (10 nM), Cn1c(CCCC(=O)O)nc2cc(N(CCCl)CCCl)ccc21 [Bendamustine] (10 nM) is higher in normalised response: 91.6% for the first, 106% for the second.

First: Oc1nc(-c2ccc(C(F)(F)F)cc2)nc2c1CSCC2 [XAV-939] (10 nM)
Second: NC(=O)Nc1cc(-c2cccc(F)c2)sc1C(=O)N[C@H]1CCCNC1 [AZD7762] (0.1 nM)
The normalised response of the first is lower: 92.9% for the first, 100% for the second.

Going from O=C1CCC(N2C(=O)c3ccccc3C2=O)C(=O)N1 (stereo unspecified) [Thalidomide] (10 nM) to CCC1(c2ccc(N)cc2)CCC(=O)NC1=O (stereo unspecified) [Aminoglutethimide] (10 nM), the normalised response rises from 91.9% to 101%.

Going from Cc1ccc(C(=O)N(CCCN)[C@@H](c2oc3cc(Cl)ccc3c(=O)c2Cc2ccccc2)C(C)C)cc1 (0.01 nM) to O=C(CCCCCCC(=O)Nc1ccc([C@H]2O[C@@H](CSc3nc(-c4ccccc4)c(-c4ccccc4)o3)C[C@@H](c3ccc(CO)cc3)O2)cc1)NO [Tubacin] (10 nM), the normalised response falls from 93% to 91.2%.

Tested on: BT-549
Test: as above
Conditions: incubation time: 72 h
Method in brief: as §1

Going from C[C@]12CC[C@@H]3c4ccc(O)cc4C[C@@H](CCCCCCCCC[S+]([O-])CCCC(F)(F)C(F)(F)F)[C@H]3[C@@H]1CC[C@@H]2O (stereo partly specified) [Fulvestrant] (100 nM) to CCCCCCCCCCCCCCCCCCOP(=O)([O-])OC1CC[N+](C)(C)CC1 [Perifosine] (2.5 nM), the normalised response falls from 108% to 99.5%.

First: CS(=O)(=O)c1ccc(C2=C(c3ccccc3)C(=O)OC2)cc1 [Rofecoxib] (1 nM)
Second: O=C(O)c1ccc(-c2c[nH]c3ncc(-c4ccccc4)cc23)cc1C1CCCC1 (1 nM)
The normalised response of the first is higher: 106% for the first, 103% for the second.

First: N#CCNC(=O)c1ccc(-c2ccnc(Nc3ccc(N4CCOCC4)cc3)n2)cc1 [Momelotinib] (10 nM)
Second: CC(=O)Nc1ccc(C(=O)Nc2ccccc2N)cc1 [Tacedinaline] (0.1 nM)
The normalised response of the first is higher: 99.6% for the first, 99.5% for the second.

First: O=P1(NCCCl)OCCCN1CCCl (stereo unspecified) [Ifosfamide] (10 nM)
Second: Cn1c(CCCC(=O)O)nc2cc(N(CCCl)CCCl)ccc21 [Bendamustine] (10 nM)
The normalised response of the first is lower: 95.9% for the first, 99.3% for the second.

First: Oc1nc(-c2ccc(C(F)(F)F)cc2)nc2c1CSCC2 [XAV-939] (10 nM)
Second: NC(=O)Nc1cc(-c2cccc(F)c2)sc1C(=O)N[C@H]1CCCNC1 [AZD7762] (0.1 nM)
The normalised response of the first is lower: 98.6% for the first, 105% for the second.

First: O=C1CCC(N2C(=O)c3ccccc3C2=O)C(=O)N1 (stereo unspecified) [Thalidomide] (10 nM)
Second: CCC1(c2ccc(N)cc2)CCC(=O)NC1=O (stereo unspecified) [Aminoglutethimide] (10 nM)
The normalised response of the first is higher: 99.7% for the first, 95.2% for the second.

Compared with Cc1ccc(C(=O)N(CCCN)[C@@H](c2oc3cc(Cl)ccc3c(=O)c2Cc2ccccc2)C(C)C)cc1 (0.01 nM), O=C(CCCCCCC(=O)Nc1ccc([C@H]2O[C@@H](CSc3nc(-c4ccccc4)c(-c4ccccc4)o3)C[C@@H](c3ccc(CO)cc3)O2)cc1)NO [Tubacin] (10 nM) is lower in normalised response: 104% for the first, 101% for the second.

Tested on: HDQ-P1
Test: as above
Conditions: incubation time: 72 h
Method in brief: as §1

Going from C[C@]12CC[C@@H]3c4ccc(O)cc4C[C@@H](CCCCCCCCC[S+]([O-])CCCC(F)(F)C(F)(F)F)[C@H]3[C@@H]1CC[C@@H]2O (stereo partly specified) [Fulvestrant] (100 nM) to CCCCCCCCCCCCCCCCCCOP(=O)([O-])OC1CC[N+](C)(C)CC1 [Perifosine] (2.5 nM), the normalised response rises from 104% to 108%.

Going from CS(=O)(=O)c1ccc(C2=C(c3ccccc3)C(=O)OC2)cc1 [Rofecoxib] (1 nM) to O=C(O)c1ccc(-c2c[nH]c3ncc(-c4ccccc4)cc23)cc1C1CCCC1 (1 nM), the normalised response falls from 101% to 93.7%.

Compared with N#CCNC(=O)c1ccc(-c2ccnc(Nc3ccc(N4CCOCC4)cc3)n2)cc1 [Momelotinib] (10 nM), CC(=O)Nc1ccc(C(=O)Nc2ccccc2N)cc1 [Tacedinaline] (0.1 nM) is lower in normalised response: 103% for the first, 94.2% for the second.

Going from O=P1(NCCCl)OCCCN1CCCl (stereo unspecified) [Ifosfamide] (10 nM) to Cn1c(CCCC(=O)O)nc2cc(N(CCCl)CCCl)ccc21 [Bendamustine] (10 nM), the normalised response rises from 98% to 101%.

First: Oc1nc(-c2ccc(C(F)(F)F)cc2)nc2c1CSCC2 [XAV-939] (10 nM)
Second: NC(=O)Nc1cc(-c2cccc(F)c2)sc1C(=O)N[C@H]1CCCNC1 [AZD7762] (0.1 nM)
The normalised response of the first is lower: 97.8% for the first, 106% for the second.

First: O=C1CCC(N2C(=O)c3ccccc3C2=O)C(=O)N1 (stereo unspecified) [Thalidomide] (10 nM)
Second: CCC1(c2ccc(N)cc2)CCC(=O)NC1=O (stereo unspecified) [Aminoglutethimide] (10 nM)
The normalised response of the first is lower: 96.1% for the first, 97.5% for the second.

Compared with Cc1ccc(C(=O)N(CCCN)[C@@H](c2oc3cc(Cl)ccc3c(=O)c2Cc2ccccc2)C(C)C)cc1 (0.01 nM), O=C(CCCCCCC(=O)Nc1ccc([C@H]2O[C@@H](CSc3nc(-c4ccccc4)c(-c4ccccc4)o3)C[C@@H](c3ccc(CO)cc3)O2)cc1)NO [Tubacin] (10 nM) is lower in normalised response: 103% for the first, 93% for the second.

Tested on: CAL-85-1
Test: as above
Conditions: incubation time: 72 h
Method in brief: as §1

Compared with C[C@]12CC[C@@H]3c4ccc(O)cc4C[C@@H](CCCCCCCCC[S+]([O-])CCCC(F)(F)C(F)(F)F)[C@H]3[C@@H]1CC[C@@H]2O (stereo partly specified) [Fulvestrant] (100 nM), CCCCCCCCCCCCCCCCCCOP(=O)([O-])OC1CC[N+](C)(C)CC1 [Perifosine] (2.5 nM) is higher in normalised response: 99.1% for the first, 101% for the second.

CS(=O)(=O)c1ccc(C2=C(c3ccccc3)C(=O)OC2)cc1 [Rofecoxib] (1 nM) and O=C(O)c1ccc(-c2c[nH]c3ncc(-c4ccccc4)cc23)cc1C1CCCC1 (1 nM) are the same in normalised response: 98.4% for the first, 98.4% for the second.

First: N#CCNC(=O)c1ccc(-c2ccnc(Nc3ccc(N4CCOCC4)cc3)n2)cc1 [Momelotinib] (10 nM)
Second: CC(=O)Nc1ccc(C(=O)Nc2ccccc2N)cc1 [Tacedinaline] (0.1 nM)
The normalised response of the first is lower: 97.1% for the first, 104% for the second.

First: O=P1(NCCCl)OCCCN1CCCl (stereo unspecified) [Ifosfamide] (10 nM)
Second: Cn1c(CCCC(=O)O)nc2cc(N(CCCl)CCCl)ccc21 [Bendamustine] (10 nM)
The normalised response of the first is lower: 100% for the first, 102% for the second.

Going from Oc1nc(-c2ccc(C(F)(F)F)cc2)nc2c1CSCC2 [XAV-939] (10 nM) to NC(=O)Nc1cc(-c2cccc(F)c2)sc1C(=O)N[C@H]1CCCNC1 [AZD7762] (0.1 nM), the normalised response falls from 98.7% to 98.4%.

Compared with O=C1CCC(N2C(=O)c3ccccc3C2=O)C(=O)N1 (stereo unspecified) [Thalidomide] (10 nM), CCC1(c2ccc(N)cc2)CCC(=O)NC1=O (stereo unspecified) [Aminoglutethimide] (10 nM) is higher in normalised response: 100% for the first, 105% for the second.

Going from Cc1ccc(C(=O)N(CCCN)[C@@H](c2oc3cc(Cl)ccc3c(=O)c2Cc2ccccc2)C(C)C)cc1 (0.01 nM) to O=C(CCCCCCC(=O)Nc1ccc([C@H]2O[C@@H](CSc3nc(-c4ccccc4)c(-c4ccccc4)o3)C[C@@H](c3ccc(CO)cc3)O2)cc1)NO [Tubacin] (10 nM), the normalised response rises from 93.8% to 103%.

Tested on: BT-474
Test: as above
Conditions: incubation time: 72 h
Method in brief: as §1

C[C@]12CC[C@@H]3c4ccc(O)cc4C[C@@H](CCCCCCCCC[S+]([O-])CCCC(F)(F)C(F)(F)F)[C@H]3[C@@H]1CC[C@@H]2O (stereo partly specified) [Fulvestrant] (100 nM) and CCCCCCCCCCCCCCCCCCOP(=O)([O-])OC1CC[N+](C)(C)CC1 [Perifosine] (2.5 nM) are the same in normalised response: 104% for the first, 104% for the second.

Going from CS(=O)(=O)c1ccc(C2=C(c3ccccc3)C(=O)OC2)cc1 [Rofecoxib] (1 nM) to O=C(O)c1ccc(-c2c[nH]c3ncc(-c4ccccc4)cc23)cc1C1CCCC1 (1 nM), the normalised response falls from 103% to 95.4%.

Going from N#CCNC(=O)c1ccc(-c2ccnc(Nc3ccc(N4CCOCC4)cc3)n2)cc1 [Momelotinib] (10 nM) to CC(=O)Nc1ccc(C(=O)Nc2ccccc2N)cc1 [Tacedinaline] (0.1 nM), the normalised response rises from 94.2% to 102%.

First: O=P1(NCCCl)OCCCN1CCCl (stereo unspecified) [Ifosfamide] (10 nM)
Second: Cn1c(CCCC(=O)O)nc2cc(N(CCCl)CCCl)ccc21 [Bendamustine] (10 nM)
The normalised response of the first is lower: 96.8% for the first, 111% for the second.

First: Oc1nc(-c2ccc(C(F)(F)F)cc2)nc2c1CSCC2 [XAV-939] (10 nM)
Second: NC(=O)Nc1cc(-c2cccc(F)c2)sc1C(=O)N[C@H]1CCCNC1 [AZD7762] (0.1 nM)
The normalised response of the first is lower: 102% for the first, 105% for the second.

First: O=C1CCC(N2C(=O)c3ccccc3C2=O)C(=O)N1 (stereo unspecified) [Thalidomide] (10 nM)
Second: CCC1(c2ccc(N)cc2)CCC(=O)NC1=O (stereo unspecified) [Aminoglutethimide] (10 nM)
The normalised response of the first is lower: 94% for the first, 105% for the second.

Compared with Cc1ccc(C(=O)N(CCCN)[C@@H](c2oc3cc(Cl)ccc3c(=O)c2Cc2ccccc2)C(C)C)cc1 (0.01 nM), O=C(CCCCCCC(=O)Nc1ccc([C@H]2O[C@@H](CSc3nc(-c4ccccc4)c(-c4ccccc4)o3)C[C@@H](c3ccc(CO)cc3)O2)cc1)NO [Tubacin] (10 nM) is lower in normalised response: 95.3% for the first, 93.5% for the second.
